Assays:
[1] = test system: allogeneic CTL response against P815 cells; test: Murine allograft model, CTL killing of P815 target cells by splenocytes; format: in vivo, C57BL/6J mice; conditions: 5HT antagonists 200 μg/injection tail vein days 6 and 8; Cyclosporin A 100 μg ip daily from day −2; sacrifice day 14 (FIGS. 13, 14)
Method: The in vivo validation screen used was an art-recognized murine allogeneic rejection model as described in Zhan et al., 2000. For this assay, a complete MHC miss-match system was employed wherein 5×10^6 P815 cells ([H-2^d] DBA/2 mastocytoma) were injected into the peritoneal cavity of C57BL/6J (H-2^b) mice on day 0 of the experiment. These mice typically generate a strong cytotoxic T lymphocyte (CTL) reaction in response to P815 cells. Following the initial P815 cell inoculation, the mice were allowed to develop a CTL response (this usually takes about 10-14 days). […] Mice were then sacrificed on day 14 of the experiment as indicated in the figures; and the allogeneic CTL response was assayed as described previously (Tretiakova et al., 2000, Nature Biotechnology 18:984-988). The primary spleen cells from the treated and untreated animals were used in the direct CTL readout. Freshly obtained primary spleen cells were incubated with the [^3H] labeled target cells (P815 cells) at 100:1, 50:1, 25:1, and 12.5:1 ratios for 3.5 hours at 37° C. and harvested using a PHD harvester. The percentage of specific killing was determined using the formula % kill=(S−E)/S, where S is the amount of the DNA retained by the target cells in the absence of the effector cells and E is the amount of retained DNA in the presence of the effector cells (expressed in counts per minute; cpm).
This is an art-recognized model of allograft […] rejection based on that described by […]. (2000). In this model, there is a complete MHC mismatch between the P815 cells (H-2^d) and the C57BL6 mouse (H-2^b), thus ensuring an aggressive immune response. The data disclosed in FIG. 13, depicts results of experiments that included 6 treatment groups, each group consisting of three mice. Each mouse received 5×10^6 P815 cells injected into the peritoneal cavity on day 0 of the study. The first group was an untreated control group, which was used to establish the baseline response of the mice against the allogeneic stimulus. These mice, without any further treatments, were sacrificed, as were the other treatment groups, on day 14 of the study and their splenocytes assayed for target-specific killing of the P815 cells.
The average kill observed for the untreated group was about 45% at an effector to target ratio of 100:1. The second group was treated with risperidone, a 5HT-2 antagonist, administered via a tail vein bolus injection (200 μg/injection) on days 6 and 8 of the study. The timing of the drug administration was selected to ensure that the T cells were fully activated prior to the drug treatment. The third group was treated with propanolol, a 5HT-1 antagonist. All of the 5HT receptor antagonist-treated groups were treated as described for the risperidone-treated group. The fourth group was treated chronically with CyclosporinA. The Cyclosporin A was administered ip at a dosage of 100 μg/injection starting two days prior to the onset of the study, i.e., at day −2, and the injections were continued on a daily basis for the duration of the study.
Finally, studies conducted in vivo using the CD8-dependent allograft rejection model, in which P815 cells (a rapidly growing cell line taken from a mastocytoma in a DBA mouse), were expanded and used to create a robust rejection response in a C57BL6 mouse. In this study the mice received 5×10^6 P815 cells injected into their peritoneal cavity on day 0 of the study. The first group was an untreated control group (naïve animals), used to acquire the baseline response of the mice against the allogeneic stimulus. The positive controls were treated with the allogeneic cells without any further treatments. These animals were used to assess the induced allogeneic response against the P815 cells. […]

[2] = test system: ConA stimulated human lymphocytes; test: Viable cell counts (trypan blue) during ConA stimulation; format: cell-based; conditions: 10 μg/ml ConA, manual counts over time (FIG. 11)
Method: FIG. 11 is a diagram depicting the effect of a 5HT type 1 receptor antagonist and a 5HT type 2 receptor antagonist on the cell numbers occurring during the mitogenic stimulation of human lymphocyte activation. The cells were stimulated with 10 μg/ml ConA. The cells were repurified on a Ficoll gradient prior to addition of the inhibitor. Trypan blue exclusion was used to count the viable cells.
To further assess the effects of propanolol (a general 5-HTR 1 antagonist) and risperidone (a general 5-HTR 2 antagonist) on the mitogenically stimulated lymphocyte culture, the number of viable cells were manually counted as the assay progressed. If the cells were not stimulated, there was no detectable change in the number of viable cells. When the cells were stimulated with ConA, a small lag period was observed and the beginning of the growth phase compared to the stimulation response curve observed in the absence of the inhibitor. […] Apparently, there is no decrease or increase compared with the starting cell numbers. It is unclear whether or not this is due too anergy, an inability to initiate the activation pathway, or both. […] Thus, based on the data presented here, the classes of antagonists that inhibit the type 2 serotonin receptors appear to be rate limiting for the lymphocyte activation processes.

[3] = test system: ConA stimulated human lymphocytes; test: Human mitogenic (ConA) stimulation, 3H-thymidine incorporation; format: cell-based; conditions: for relief of phenelzine-induced inhibition: phenelzine-inhibited cells, reagents 100 μM (FIG. 6); for proliferative response, reagent added alone: reagent 100 μM (FIG. 6); for stimulation of ConA-activated human PBLs: reagents at 400 μM, time course (FIG. 4)
Method: Blood from healthy volunteers was drawn using venipuncture, using Vacutainer collection sets and heparinized collection vials. The blood was diluted 1:1 using HBSS to a total volume of 30 ml in 50 ml conical tubes (Fisher Scientific, Co., Pittsburgh, Pa.). […] Cells from the buffy coats were collected and the residual Histopaque was washed away using repeated centrifugations in HBSS. After washes, cells were resuspended at 5 million cells per ml in RPMI, supplemented with 2% FBS. To remove adherent cells, the suspension was plated onto a 6 well flat-bottom plate (Corning Costar), 3 ml/well, and incubated for 2 hours at 37° C., 5% CO2. Non-adherent cells were harvested after this incubation, were counted and resuspended in RPMI supplemented with 10% human serum (Sigma).
All drugs were pre-plated before the cell suspension was added onto each well of a 96-well round-bottom plate. All experimental conditions were assayed in at least triplicate. Cells suspended in RPMI supplemented with 10% human serum were plated at 100,000 cells per well to a final volume of 200 μl. […] Control samples received no ConA stimulation. The plates were incubated at 37° C. and 5% CO2.

[4] = test system: T cells in macrophage-conditioned media; test: Macrophage media-conditioning study, T cell proliferation in conditioned media; format: cell-based, mouse; conditions: assay shown in FIG. 1
[5] = test system: murine lymphocytes (BALB/c responders, C57/B6 stimulators); test: Murine mixed lymphocyte reaction (BALB/c vs. C57BL6); format: cell-based, mouse; conditions: FIG. 10
Method: MLRs were performed essentially as described in Current Protocols in Immunology (1999, Section 3.12.6-3.12.7). That is, the primary spleen cells obtained from C57/B6J mice were used as stimulators. They were purified as described in Current Protocols in Immunology (1999, Section 3.1.5), and were irradiated (35 Gy) at the Hahnemann Hospital (Philadelphia, Pa.) blood bank facility. Primary spleen cells obtained from BALB/c/BYJ were depleted from the adherent cells using a nylon wool column, and were used as responders.
The various inhibitors were pre-plated onto 96 well, U-bottom plates and all experimental conditions were assayed at least in triplicate. 100,000 C57/B6 cells in RPMI medium, supplemented with 10% FBS, were plated into each well. 200,000 of BALB/c/BYJ cells were plated over the stimulator cells, to a final volume of 200 μl/well. Background controls received either no BALB/c cells, or no C57/B6 cells. One micro Ci of tritiated thymidine was added to each well after 4 days, and the plates were harvested 12 hours later.

RPMI-8226 cells = test: Cytospin histochemistry (H&E, bis-benzamide) for chromatin; format: cell-based, human; conditions: 9 hour treatments, 50 μM SB compounds, 2 μM camptothecin (FIGS. 28, 29)
Method: 2.0×10^5 RPMI-8226 cells were cultured, in 6-well culture plates, in the presence of the indicated drug concentrations, in a total of 5 mL RPMI-1640 supplemented with 10% FBS. Each well was harvested in its entirety and divided into two identical samples for cytospins.
1.0×10^5 RPMI-8226 cells from each treatment group were loaded into Cyto-funnels and centrifuged at 500 rpm for 4 minutes with medium acceleration. Slides were then fixed through graded methanol in PBS (100%, 5 minutes; 80%, 5 minutes; 50%, 5 minutes), washed for 5 minutes in PBS and stored in PBS at 4° C. until stained.
Cytospun slides were stained with Hematoxylin and Eosin, followed by the nuclear stain, bis-benzamide, rinsed and mounted according to standard staining protocols. Slides were visualized under both brightfield and fluorescent light to generate matched images of the same slide field (see, e.g., FIGS. 28 and 29).

[6] = test system: allogeneic stimulation of human lymphocytes; test: Human mixed lymphocyte reaction (allogeneic stimulation), 3H-thymidine; format: cell-based; conditions: allogeneic stimulation, harvest 120 hours, drug titration (FIGS. 7B, 8B, 9B)
Description: Blood from two healthy, non-related, donors was taken as described above. Peripheral blood mononuclear cells were isolated as described previously elsewhere. The adherent cells were separated from the suspension cells as described previously for both donors. Suspension cells from both donors (donors A and B) were used as responders. The remaining adherent cells from each of the donors were used as stimulators against a different donor (suspension A against adherent B and adherent A against suspension B). The stimulator cells were irradiated at 35 Gy. Drugs were pre-plated onto 96 well, U-bottom plates in triplicate. 200,000 “stimulator” cells in RPMI supplemented with 10% human serum were then plated in each well. 200,000 “responder” cells in the same medium were then plated over stimulators to a final volume of 200 μl/well. Background controls received either no stimulator cells, or no responder cells. The plates were incubated at 37° C. and 5% CO2. 1 μCi of tritiated thymidine was added to each well after 4.5 days, and the plates were harvested 12 hours later.

[7] = test system: RPMI 8226 multiple myeloma cells; test: RPMI 8226 cell viability and proliferation (trypan blue, MTT, 3H-thymidine); format: cell-based, human; conditions: 3H-thymidine uptake, drug titration (FIGS. 19-25, 31, 32)
Method: The human plasmacytoma (multiple myeloma) cell line, RPMI 8226 (American Type Culture Collection, Manassas, Va.), was cultured in RPMI 1640 supplemented with 10 mM HEPES, 1 mM sodium pyruvate, 4.5 g/L glucose, 1.5 g/L bicarbonate and 20% FBS (non-heat inactivated).
Cell proliferation was assayed by three methods—Trypan Blue Exclusion was used to quantify the number of viable cells in culture; 3-(4,5-dimethylthiazol-2-yl)-2,5-diphenyl tetrazolium bromide (MTT) reduction was used to assay mitochondrial activity (and thus cell viability); and ^3H-Thymidine uptake was employed to assay for active DNA synthesis.
Three separate indicators of cell proliferation were employed to study the effects of 5-HT receptor modulating agents on the human multiple myeloma cell line, RPMI 8226. Cells were plated at 4 separate densities and were treated with LY53587 (an antagonist of the 5-HT2A/2B/2C receptors) at a range of concentrations. The exclusion of trypan blue dye was used as an indicator of cell viability. Cell numbers were then plotted against the concentration of drug added.
MTT reduction was also used as an indicator of cell viability (more specifically, mitochondrial activity). Absorbance values at OD570 were then plotted against drug concentration. Finally, DNA synthesis was assayed, through the measurement of ^3H-thymidine uptake, and counts per minute (CPMs) were plotted against drug concentration.
Culturing and administration of drugs and ^3H-thymidine were performed as described elsewhere herein.

CC(C)NC[C@H](O)COc1cccc2ccccc12 (racemic) [propanolol]
allograft (CTL) response [1]: did not protect the mice from the allograft rejection response
number of viable cells [2]: prevents the cell from growing

N[C@@H](Cc1c[nH]c2ccccc12)C(=O)O [tryptophan]
proliferative response ([3]; 0.1 μg/ml ConA, harvest 72 hours (FIG. 5A)): augments the proliferative response
relief of phenelzine-induced inhibition ([3]; 1 μg/ml ConA): had very little effect
proliferative response, reagent added alone ([3]; 1 μg/ml ConA): enhanced the proliferative response
proliferative response ([3]; highest ConA dose 10 μg/ml, harvest 72 hours (FIG. 5C)): no enhancement at the highest level
stimulation of ConA-activated human PBLs [3]: enhanced the maximal stimulation of the cells
restoration of T cell proliferation in conditioned media [4]: had no effect

CNc1cc(NS(=O)(=O)c2ccc(N)cc2)nc(NC)n1 [Ro 04-679]
outcome of murine MLR [5]: had no effects on the outcome of the assay

5-methyl hydroxytryptamine
outcome of murine MLR [5]: slight enhancement

NCCc1c[nH]c2ccc(O)cc12 [serotonin, 5-hydroxytryptamine]
relief of phenelzine-induced inhibition ([3]; 1 μg/ml ConA): caused the assay to rebound to baseline levels
proliferative response, reagent added alone ([3]; 1 μg/ml ConA): did not
proliferative response ([3]; differing ConA concentrations 0.1-10 μg/ml, harvest 72 hours (FIG. 5)): has no effect on the assay until the highest dose of ConA
stimulation of ConA-activated human PBLs [3]: enhanced the maximal stimulation of the cells
restoration of T cell proliferation in conditioned media [4]: only marginally restored the assay

Cc1cc2c(cc1Cl)N(C(=O)Nc1ccc(Oc3cccnc3C)nc1)CC2 [SB 242084]
inhibitory profile on mitogenic stimulation ([3]; 1 μg/ml ConA, harvest 72 h, drug added at time=0 or 48 hours (FIG. 12)): retained the complete inhibitory profile
activation / proliferative response ([3]; 5 μg/ml ConA, harvest 72 hours, drug titration (FIGS. 7A, 8A, 9A, 17, 33)): inhibit the activation response at pharmacologically relevant concentrations
chromatin condensation / fragmentation (apoptosis) (RPMI-8226 cells): induced programmed cell death comparable to that induced by the topoisomerase I inhibitor, camptothecin
chromatin condensation / fragmentation (apoptosis) (RPMI-8226 cells; listed as SB242084): condensed and fragmented chromatin
activation / proliferative response [6]: inhibit the activation response at pharmacologically relevant concentrations
growth / proliferation of RPMI 8226 cells [7]: strong inhibition of growth

From patent US20060135415A1, “Immunomodulation and effect on cell processes relating to serotonin family receptors and the blood-brain barrier” (priority 2002, published 2006)
